This test deals with recombinant human AChE (Homo sapiens, UniProt P22303, D92N/S572N). In kind it is biochemical.

Structures are written as SMILES.

Chain of recombinant human AChE (P22303 whole entry D92N/S572N, looked up): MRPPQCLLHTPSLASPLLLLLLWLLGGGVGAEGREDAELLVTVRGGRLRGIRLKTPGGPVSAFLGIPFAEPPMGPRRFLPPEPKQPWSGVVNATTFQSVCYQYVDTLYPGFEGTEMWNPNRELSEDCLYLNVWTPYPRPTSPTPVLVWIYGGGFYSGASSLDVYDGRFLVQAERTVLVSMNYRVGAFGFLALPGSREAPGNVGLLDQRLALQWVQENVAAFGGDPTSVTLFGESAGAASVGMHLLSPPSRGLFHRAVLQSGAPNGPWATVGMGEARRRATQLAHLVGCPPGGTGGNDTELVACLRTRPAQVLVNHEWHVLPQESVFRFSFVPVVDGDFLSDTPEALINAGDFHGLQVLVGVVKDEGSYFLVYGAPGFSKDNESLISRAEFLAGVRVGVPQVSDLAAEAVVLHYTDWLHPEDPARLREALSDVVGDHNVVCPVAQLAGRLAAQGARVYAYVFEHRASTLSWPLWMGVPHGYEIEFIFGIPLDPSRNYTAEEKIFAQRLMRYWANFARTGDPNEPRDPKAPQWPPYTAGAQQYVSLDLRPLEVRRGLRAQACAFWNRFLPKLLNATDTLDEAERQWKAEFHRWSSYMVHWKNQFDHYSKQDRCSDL

With `CCOP(=O)(OCC)Oc1ccc([N+](=O)[O-])cc1` [paraoxon], the “inhibition of AChE enzyme (localized red spot)” value was “inhibited”.

(Values after patent US11008554B2 (priority 2014, dated 2021).)
